{
  "source": "paper PMC10329651",
  "about": "“ATPase activity of DFCP1 controls selective autophagy” (Nature Communications, 2023)",
  "molecules": {"B1": {"name": "His6-MBP-DFCP1 WT (aa 1-410) (domain or fragment, UniProt Q9HBF4 1-410, looked up)", "chain": "MSAQTSPAEKGLNPGLMCQESYACSGTDEAIFECDECCSLQCLRCEEELHRQERLRNHERIRLKPGHVPYCDLCKGLSGHLPGVRQRAIVRCQTCKINLCLECQKRTHSGGNKRRHPVTVYNVSNLQESLEAEEMDEETKRKKMTEKVVSFLLVDENEEIQVTNEEDFIRKLDCKPDQHLKVVSIFGNTGDGKSHTLNHTFFYGREVFKTSPTQESCTVGVWAAYDPVHKVAVIDTEGLLGATVNLSQRTRLLLKVLAISDLVIYRTHADRLHNDLFKFLGDASEAYLKHFTKELKATTARCGLDVPLSTLGPAVIIFHETVHTQLLGSDHPSEVPEKLIQDRFRKLGRFPEAFSSIHYKGTRTYNPPTDFSGLRRALEQLLENNTTRSPRHPGVIFKALKALSDRFSGE", "notes": "Loaded with ADP or ATPγS before size exclusion chromatography; dimer with ATPγS, monomer with ADP; The vector has a TEV site, but no cleavage is described; also called DFCP1 N-terminus; DFCP1 ATPase domain; not shown: His6, N-terminal, kept; MBP, N-terminal, kept"}},
  "key": {"DFCP1 WT (aa 1–410)": {"target": "T1, DFCP1 WT (aa 1–410) (Homo sapiens, UniProt Q9HBF4)", "T1 construct": "gene ZFYVE1; N-terminal ATPase domain, aa 1-410, His6-MBP fusion (pET-His6-MBP-TEV-LIC, E. coli Rosetta2(DE3))", "T1 sequence (Q9HBF4 1-410)": "B1 chain", "test": "size exclusion chromatography, nucleotide-dependent dimerization", "format": "binding", "settings": "400 µM nucleotide, 50 mM MgCl2; non-hydrolysable ATP analogue"}, "DFCP1-FL": {"target": "T2, DFCP1-FL (Homo sapiens, UniProt Q9HBF4)", "T2 construct": "gene ZFYVE1; full length, His6-tagged, Sf9 baculovirus", "T2 sequence (Q9HBF4 1-777)": "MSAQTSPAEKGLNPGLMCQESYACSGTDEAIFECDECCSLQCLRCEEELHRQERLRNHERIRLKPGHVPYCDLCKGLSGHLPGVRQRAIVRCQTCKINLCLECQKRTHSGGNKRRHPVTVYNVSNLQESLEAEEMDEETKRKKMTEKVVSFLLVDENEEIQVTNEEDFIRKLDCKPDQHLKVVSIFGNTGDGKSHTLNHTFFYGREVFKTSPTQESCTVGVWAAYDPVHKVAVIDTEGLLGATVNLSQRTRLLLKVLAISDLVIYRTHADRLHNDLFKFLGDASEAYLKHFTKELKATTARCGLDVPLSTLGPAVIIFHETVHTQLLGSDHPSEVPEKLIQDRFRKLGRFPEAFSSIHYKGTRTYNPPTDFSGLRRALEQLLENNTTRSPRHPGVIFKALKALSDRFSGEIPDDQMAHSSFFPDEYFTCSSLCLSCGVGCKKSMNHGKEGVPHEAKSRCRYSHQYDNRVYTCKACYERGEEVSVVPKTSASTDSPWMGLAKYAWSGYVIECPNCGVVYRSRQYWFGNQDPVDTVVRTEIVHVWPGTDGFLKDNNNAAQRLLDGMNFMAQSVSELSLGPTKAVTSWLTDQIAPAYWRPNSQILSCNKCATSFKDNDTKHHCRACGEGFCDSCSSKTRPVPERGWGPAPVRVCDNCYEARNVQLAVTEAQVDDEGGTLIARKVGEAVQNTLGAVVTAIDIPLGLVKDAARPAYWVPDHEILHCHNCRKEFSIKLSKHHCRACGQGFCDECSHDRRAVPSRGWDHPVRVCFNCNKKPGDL", "test": "malachite green phosphate release (Biomol Green)", "format": "biochemical", "settings": "0.5 mM ATP, 10 mM MgCl2, 10 µM ZnCl2, pH 7.5, 37 °C, 30 min; with and without liposomes"}, "[1]": {"target": "the molecule itself", "test": "SEC; protein loaded with 400 µM ATPγS for 20 min at RT in exchange buffer (50 mM Tris, 150 mM NaCl, 50 mM MgCl2, 10% glycerol, 1 mM TCEP); Superdex 200 Increase 10/300 GL, isocratic elution at 4 °C, 0.25 ml/min; molecular weights relative to a Bio-Rad gel filtration standard"}},
  "data": [
    {"molecule": "Nc1ncnc2c1ncn2[C@@H]1O[C@H](COP(=O)(O)OP(=O)(O)OP(O)(O)=S)[C@@H](O)[C@H]1O", "note": "[ATPγS]", "values": [
      {"measurement": "size exclusion chromatography, nucleotide-dependent dimerization", "setting": "DFCP1 WT (aa 1–410)", "result": "ADP-bound DFCP1 migrated as a monomer, ATPγS-loaded DFCP1 migrated as dimer"}
    ]},
    {"molecule": "Nc1ncnc2c1ncn2[C@@H]1O[C@H](COP(=O)(O)OP(=O)(O)OP(=O)(O)O)[C@@H](O)[C@H]1O", "note": "[ATP]", "values": [
      {"measurement": "malachite green phosphate release (Biomol Green)", "setting": "DFCP1-FL", "result": "Addition of liposomes to purified full-length DFCP1 resulted in a modest, but significant increase"}
    ]},
    {"molecule": "B1", "values": [
      {"measurement": "stoichiometry N", "setting": "[1]", "result": 2}
    ]}
  ]
}
